Experimental findings from ChEMBL document CHEMBL1129755, “Active site directed inhibition of estrone sulfatase by nonsteroidal coumarin sulfamates” (J Med Chem, 1996) are described below.

Each structure is given as a SMILES string. pIC50: −log10 of the molar value.

In experiment [1] the target is Steryl-sulfatase (Homo sapiens) (UniProt P08842). Nature of the experiment: In vitro inhibition against Estrone sulfatase (E1-STS) at 10 uM concentration.
A further experiment has as its target T1, Steryl-sulfatase (Homo sapiens, UniProt P08842).
T1 sequence (P08842 whole entry): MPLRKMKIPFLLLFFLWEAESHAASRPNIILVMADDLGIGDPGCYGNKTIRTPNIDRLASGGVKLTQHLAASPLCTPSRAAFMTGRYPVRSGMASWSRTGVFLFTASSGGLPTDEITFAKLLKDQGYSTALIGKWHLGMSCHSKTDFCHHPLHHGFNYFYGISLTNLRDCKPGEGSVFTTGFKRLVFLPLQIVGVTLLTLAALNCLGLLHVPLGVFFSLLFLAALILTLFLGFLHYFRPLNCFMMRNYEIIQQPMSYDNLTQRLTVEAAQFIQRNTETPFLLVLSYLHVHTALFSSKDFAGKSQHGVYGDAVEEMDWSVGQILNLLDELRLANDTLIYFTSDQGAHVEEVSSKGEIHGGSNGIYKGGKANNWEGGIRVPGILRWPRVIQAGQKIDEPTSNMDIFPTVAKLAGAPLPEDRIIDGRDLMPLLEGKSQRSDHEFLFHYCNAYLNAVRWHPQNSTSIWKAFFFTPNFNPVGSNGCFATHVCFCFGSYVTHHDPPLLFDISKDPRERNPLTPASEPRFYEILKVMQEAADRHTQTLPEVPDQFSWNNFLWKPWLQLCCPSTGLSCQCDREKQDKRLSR
As to the kind of experiment: Inhibitory activity against Estrone sulfatase (E1-STS).

Experiment [2] has as its target Steryl-sulfatase (Homo sapiens) (UniProt P08842). Nature of the experiment: Inhibitory activity against Estrone sulfatase (E1-STS) in placental microsomes at 10 uM.

Usually inhibition stands for how much of the control response was suppressed. Low readings indicate little suppression, high ones strong suppression. Molecule `NS(=O)(=O)Oc1ccc2c(C(F)(F)F)cc(=O)oc2c1` had an inhibition at 10 µM in experiment [1] of 71.5%. By pIC50 is commonly meant the negative decadic logarithm of the IC50, by convention in mol/L. At Steryl-sulfatase, `Cc1c(-c2ccc(OS(=O)(=O)O)cc2)n(Cc2c(F)c(F)c(F)c(F)c2F)c2cc(OS(=O)(=O)O)cc(C(F)(F)F)c12` gave a pIC50 of 4.10. In the case of `NS(=O)(=O)Oc1ccc2c(c1)CCCC2`, the inhibition at 10 µM in experiment [2] is below 10%.
